In US10800791B2, “Triazole ACC inhibitors and uses thereof” (Gilead Apollo, LLC, priority 2015, dated 2020):
≈ marks a conversion by molar mass, not a printed value. Like-named read-outs stand apart in the source and are kept apart here.

Legend:
C. albicans = assay: Antifungal Activity Assay (broth microtiter MIC), C. albicans; format: cell-based, Candida albicans; conditions: Candida albicans, ATCC90028, 48 h
Procedure, shortened: (§1)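 MICs were scored by eye at 48 h relative to the growth control. Plates followed CLSI M27-A3, with Candida suspensions in RPMI 1640+MOPS giving a final 2.5×10^3 CFU/mL; the colonies came from Sabouraud agar grown overnight at 35 °C.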

C. krusei = assay: Antifungal Activity Assay (broth microtiter MIC), C. krusei; format: cell-based, Candida krusei; conditions: Pichia kudriavzevii, ATCC6258, 48 h
Procedure, shortened: as §1

C. parapsilosis = assay: Antifungal Activity Assay (broth microtiter MIC), C. parapsilosis; format: cell-based, Candida parapsilosis; conditions: Lodderomyces parapsilosis, ATCC22019, 48 h
Procedure, shortened: as §1

Botrtyis cinerea (Bc) = assay: Growth inhibition assay of fungal pathogens, Bc; format: cell-based; conditions: 48 h
Procedure, shortened: (§2)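 Inhibition percentages reflect 48 h OD600 and visual scores relative to a 2% DMSO control. Test concentrations were 50, 10, 2 ppm or 2, 0.4, 0.08 ppm final, applied to spores in 17% V8 medium.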

[1] = system: Collectotrichum graminicola (Cg); assay: Growth inhibition assay of fungal pathogens, Cg; format: cell-based; conditions: 48 h
Procedure, shortened: as §2

Diplodia maydis (Dm) = assay: Growth inhibition assay of fungal pathogens, Dm; format: cell-based; conditions: Stenocarpella maydis, 48 h
Procedure, shortened: as §2

[2] = system: Fusarium moniliforme (Fm); assay: Growth inhibition assay of fungal pathogens, Fm; format: cell-based; conditions: for IC90: Fusarium verticillioides, 48 h, read-out: Concentration at 90% Inhibition Fm
Procedure, shortened: as §2

[3] = system: Fusarium virguliforme (Fv); assay: Growth inhibition assay of fungal pathogens, Fv; format: cell-based; conditions: 48 h
Procedure, shortened: as §2

[4] = system: Phytophthora capsici (Pc); assay: Growth inhibition assay of fungal pathogens, Pc; format: cell-based; conditions: 48 h
Procedure, shortened: as §2

Septoria tritici (St) = assay: Growth inhibition assay of fungal pathogens, St; format: cell-based; conditions: Zymoseptoria tritici, 48 h
Procedure, shortened: as §2

fungal (fACC2) = fungal (fACC2) (UniProt Q00955); conditions: read-out: fACC2 (in vitro ACC2 Inhibition Assay, IC50), ADP-Glo, 5 nM ACC2, 20 μM ATP, 20 μM acetyl-CoA
fungal (fACC2), sequence (Q00955 whole entry): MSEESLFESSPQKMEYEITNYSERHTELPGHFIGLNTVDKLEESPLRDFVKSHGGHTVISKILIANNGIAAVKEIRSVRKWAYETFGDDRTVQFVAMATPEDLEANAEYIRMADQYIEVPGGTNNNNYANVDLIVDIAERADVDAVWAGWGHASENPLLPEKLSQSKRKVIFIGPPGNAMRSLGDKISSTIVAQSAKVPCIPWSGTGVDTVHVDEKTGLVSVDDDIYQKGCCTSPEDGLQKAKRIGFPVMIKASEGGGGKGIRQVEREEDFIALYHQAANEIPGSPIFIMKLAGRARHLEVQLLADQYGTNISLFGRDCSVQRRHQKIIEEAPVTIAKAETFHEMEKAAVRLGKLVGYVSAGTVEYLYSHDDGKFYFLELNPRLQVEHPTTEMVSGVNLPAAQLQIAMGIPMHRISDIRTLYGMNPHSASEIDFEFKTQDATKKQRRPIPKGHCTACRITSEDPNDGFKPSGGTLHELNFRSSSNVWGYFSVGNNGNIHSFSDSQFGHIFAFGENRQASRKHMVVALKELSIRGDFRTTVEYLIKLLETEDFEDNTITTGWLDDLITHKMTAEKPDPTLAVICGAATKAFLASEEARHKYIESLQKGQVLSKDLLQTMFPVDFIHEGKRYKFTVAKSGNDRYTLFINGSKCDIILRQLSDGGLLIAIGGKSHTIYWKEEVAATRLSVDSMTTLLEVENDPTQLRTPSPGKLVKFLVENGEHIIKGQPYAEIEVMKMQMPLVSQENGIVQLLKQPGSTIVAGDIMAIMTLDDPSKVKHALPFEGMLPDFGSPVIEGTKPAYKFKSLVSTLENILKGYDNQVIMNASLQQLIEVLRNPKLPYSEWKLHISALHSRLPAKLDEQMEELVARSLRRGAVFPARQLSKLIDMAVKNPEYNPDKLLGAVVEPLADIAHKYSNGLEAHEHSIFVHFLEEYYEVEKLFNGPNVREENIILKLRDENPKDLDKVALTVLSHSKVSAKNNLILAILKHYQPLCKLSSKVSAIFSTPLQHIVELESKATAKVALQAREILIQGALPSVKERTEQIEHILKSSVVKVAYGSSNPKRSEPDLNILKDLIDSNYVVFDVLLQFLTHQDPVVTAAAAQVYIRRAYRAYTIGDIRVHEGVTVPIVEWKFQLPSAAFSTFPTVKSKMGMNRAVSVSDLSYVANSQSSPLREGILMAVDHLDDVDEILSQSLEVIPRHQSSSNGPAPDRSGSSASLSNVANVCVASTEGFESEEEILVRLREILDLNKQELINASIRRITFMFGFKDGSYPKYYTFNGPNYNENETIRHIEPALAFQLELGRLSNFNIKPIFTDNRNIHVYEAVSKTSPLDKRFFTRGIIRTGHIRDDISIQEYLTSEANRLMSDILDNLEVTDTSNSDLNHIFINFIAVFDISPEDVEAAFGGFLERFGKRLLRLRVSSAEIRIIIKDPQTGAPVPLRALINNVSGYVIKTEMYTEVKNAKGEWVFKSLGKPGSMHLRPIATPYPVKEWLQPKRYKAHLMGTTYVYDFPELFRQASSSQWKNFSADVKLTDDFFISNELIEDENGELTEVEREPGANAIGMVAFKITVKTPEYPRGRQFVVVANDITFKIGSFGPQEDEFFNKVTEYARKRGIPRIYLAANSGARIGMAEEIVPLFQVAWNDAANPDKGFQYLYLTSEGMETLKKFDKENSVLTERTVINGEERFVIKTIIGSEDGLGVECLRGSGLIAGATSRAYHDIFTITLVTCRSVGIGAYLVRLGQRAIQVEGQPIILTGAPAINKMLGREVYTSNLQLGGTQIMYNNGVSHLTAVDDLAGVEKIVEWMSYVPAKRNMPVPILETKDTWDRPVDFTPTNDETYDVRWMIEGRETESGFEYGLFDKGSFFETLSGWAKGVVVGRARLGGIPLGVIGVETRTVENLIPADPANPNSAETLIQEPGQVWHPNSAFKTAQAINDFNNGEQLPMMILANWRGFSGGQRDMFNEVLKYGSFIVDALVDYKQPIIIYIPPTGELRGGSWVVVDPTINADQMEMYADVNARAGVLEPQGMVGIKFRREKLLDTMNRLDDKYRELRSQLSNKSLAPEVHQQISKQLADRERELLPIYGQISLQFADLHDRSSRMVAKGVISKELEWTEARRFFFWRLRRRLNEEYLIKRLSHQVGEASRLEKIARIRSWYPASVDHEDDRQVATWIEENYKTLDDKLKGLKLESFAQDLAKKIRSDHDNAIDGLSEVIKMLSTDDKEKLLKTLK

[5] = Fusarium moniliforme, growth inhibition at 48 hours vs 2% DMSO control

COc1ccc(F)cc1[C@H](Cn1c(=O)n(C(C)(C)C(=O)NCC(C)C)c(=O)c2c(C)c(-n3nccn3)sc21)OC1CCOCC1 [Compound I-29, (R)-2-(1-(2-(5-fluoro-2-methoxyphenyl)-2-((tetrahydro-2H-pyran-4-yl)oxy)ethyl)-5-methyl-2,4-dioxo-6-(2H-1,2,3-triazol-2-yl)-1,4-dihydro-thieno[2,3-d]pyrimidin-3(2H)-yl)-N-isobutyl-2-methylpropanamide]
MIC (C. albicans; Table 3a, ATCC 90028, 3 replicates, MIC recorded at 48 h, read-out: MIC, C. albicans ATCC 90028): 0.25 to 1 µg/mL (≈ 0.389 to 1.56 µM)
MIC (C. albicans; Table 3b (additional results), ATCC 90028, 3 replicates, MIC recorded at 48 h, read-out: MIC, C. albicans ATCC 90028): 0.06 to 0.249 µg/mL (≈ 0.0933 to 0.387 µM)
MIC (C. krusei; Table 3a, ATCC 6258, 3 replicates, MIC recorded at 48 h, read-out: MIC, C. krusei ATCC 6258): 0.06 to 0.24 µg/mL (≈ 0.0933 to 0.373 µM)
MIC (C. krusei; Table 3b (additional results), ATCC 6258, 3 replicates, MIC recorded at 48 h, read-out: MIC, C. krusei ATCC 6258): 0.06 to 0.249 µg/mL (≈ 0.0933 to 0.387 µM)
MIC (C. parapsilosis; Table 3a, ATCC 22019, 3 replicates, MIC recorded at 48 h, read-out: MIC, C. parapsilosis ATCC 22019): 0.25 to 1 µg/mL (≈ 0.389 to 1.56 µM)
MIC (C. parapsilosis; Table 3b (additional results), ATCC 22019, 3 replicates, MIC recorded at 48 h, read-out: MIC, C. parapsilosis ATCC 22019): 0.25 to 1 µg/mL (≈ 0.389 to 1.56 µM)
IC90 (Botrtyis cinerea (Bc); Botrtyis cinerea, growth inhibition at 48 hours vs 2% DMSO control, read-out: Concentration at 90% Inhibition Bc): 0.4 µg/mL (≈ 0.622 µM)
IC90 (Botrtyis cinerea (Bc); Botrtyis cinerea, growth inhibition vs 2% DMSO control at 48 hours, read-out: Concentration at 90% Inhibition Bc): 0.4 µg/mL (≈ 0.622 µM)
IC90 ([1]; Collectotrichum graminicola, growth inhibition at 48 hours vs 2% DMSO control, read-out: Concentration at 90% Inhibition Cg): 0.4 µg/mL (≈ 0.622 µM)
IC90 ([1]; Collectotrichum graminicola, growth inhibition vs 2% DMSO control at 48 hours, read-out: Concentration at 90% Inhibition Cg): 0.4 µg/mL (≈ 0.622 µM)
IC90 (Diplodia maydis (Dm); Diplodia maydis, growth inhibition at 48 hours vs 2% DMSO control, read-out: Concentration at 90% Inhibition Dm): 0.4 µg/mL (≈ 0.622 µM)
IC90 (Diplodia maydis (Dm); Diplodia maydis, growth inhibition vs 2% DMSO control at 48 hours, read-out: Concentration at 90% Inhibition Dm): 0.4 µg/mL (≈ 0.622 µM)
IC90 [2, 5]: 0.08 µg/mL (≈ 0.124 µM)
IC90 ([2]; Fusarium moniliforme, growth inhibition vs 2% DMSO control at 48 hours): 0.08 µg/mL (≈ 0.124 µM)
IC90 ([3]; growth inhibition at 48 hours vs 2% DMSO control, read-out: Concentration at 90% Inhibition Fv): 0.4 µg/mL (≈ 0.622 µM)
IC90 ([3]; growth inhibition vs 2% DMSO control at 48 hours, read-out: Concentration at 90% Inhibition Fv): 0.4 µg/mL (≈ 0.622 µM)
IC90 ([4]; growth inhibition at 48 hours vs 2% DMSO control, read-out: Concentration at 90% Inhibition Pc): > 50 µg/mL
IC90 ([4]; growth inhibition vs 2% DMSO control at 48 hours, read-out: Concentration at 90% Inhibition Pc): > 50 µg/mL
IC90 (Septoria tritici (St); Septoria tritici, growth inhibition at 48 hours vs 2% DMSO control, read-out: Concentration at 90% Inhibition St): 10 µg/mL (≈ 15.6 µM)
IC90 (Septoria tritici (St); Septoria tritici, growth inhibition vs 2% DMSO control at 48 hours, read-out: Concentration at 90% Inhibition St): > 50 µg/mL
IC50 (fungal (fACC2); Table 2a): 1 to 5 nM
IC50 (fungal (fACC2); Table 2b, additional results): 1 to 5 nM

COc1ccc(F)cc1[C@H](Cn1c(=O)n(C(C)(C)C(=O)N2CCCCC2)c(=O)c2c(C)c(-n3nccn3)sc21)OC1CCC(=O)CC1 [Compound I-34, (R)-1-(2-(5-fluoro-2-methoxyphenyl)-2-((4-oxocyclohexyl)oxy)ethyl)-5-methyl-3-(2-methyl-1-oxo-1-(piperidin-1-yl)propan-2-yl)-6-(2H-1,2,3-triazol-2-yl)thieno[2,3-d]pyrimidine-2,4(1H,3H)-dione]
MIC (C. albicans; read-out: MIC, C. albicans ATCC 90028, Table 3a, 3 replicates, MIC recorded at 48 h): 0.25 to 1 µg/mL (≈ 0.375 to 1.5 µM)
MIC (C. albicans; read-out: MIC, C. albicans ATCC 90028, Table 3b (additional results), 3 replicates, MIC recorded at 48 h): 0.25 to 1 µg/mL (≈ 0.375 to 1.5 µM)
MIC (C. krusei; read-out: MIC, C. krusei ATCC 6258, Table 3a, 3 replicates, MIC recorded at 48 h): 0.25 to 1 µg/mL (≈ 0.375 to 1.5 µM)
MIC (C. krusei; read-out: MIC, C. krusei ATCC 6258, Table 3b (additional results), 3 replicates, MIC recorded at 48 h): 1.01 to 2 µg/mL (≈ 1.51 to 3 µM)
MIC (C. parapsilosis; read-out: MIC, C. parapsilosis ATCC 22019, Table 3a, 3 replicates, MIC recorded at 48 h): 0.25 to 1 µg/mL (≈ 0.375 to 1.5 µM)
MIC (C. parapsilosis; read-out: MIC, C. parapsilosis ATCC 22019, Table 3b (additional results), 3 replicates, MIC recorded at 48 h): 0.25 to 1 µg/mL (≈ 0.375 to 1.5 µM)
IC90 (Botrtyis cinerea (Bc); read-out: Concentration at 90% Inhibition Bc, Botrtyis cinerea, growth inhibition at 48 hours vs 2% DMSO control): 0.4 µg/mL (≈ 0.6 µM)
IC90 (Botrtyis cinerea (Bc); read-out: Concentration at 90% Inhibition Bc, Botrtyis cinerea, growth inhibition vs 2% DMSO control at 48 hours): 0.4 µg/mL (≈ 0.6 µM)
IC90 ([1]; read-out: Concentration at 90% Inhibition Cg, Collectotrichum graminicola, growth inhibition at 48 hours vs 2% DMSO control): 0.4 µg/mL (≈ 0.6 µM)
IC90 ([1]; read-out: Concentration at 90% Inhibition Cg, Collectotrichum graminicola, growth inhibition vs 2% DMSO control at 48 hours): 0.4 µg/mL (≈ 0.6 µM)
IC90 (Diplodia maydis (Dm); read-out: Concentration at 90% Inhibition Dm, Diplodia maydis, growth inhibition at 48 hours vs 2% DMSO control): 2 µg/mL (≈ 3 µM)
IC90 (Diplodia maydis (Dm); read-out: Concentration at 90% Inhibition Dm, Diplodia maydis, growth inhibition vs 2% DMSO control at 48 hours): 2 µg/mL (≈ 3 µM)
Concentration at 90% Inhibition Fm [2, 5]: AA (compound concentration of 0.08 ppm at 90% inhibition of fungal pathogens)
IC90 [2]: 0.08 µg/mL (≈ 0.12 µM)
IC90 ([3]; read-out: Concentration at 90% Inhibition Fv, Fusarium virguliforme, growth inhibition at 48 hours vs 2% DMSO control): 0.4 µg/mL (≈ 0.6 µM)
IC90 ([3]; read-out: Concentration at 90% Inhibition Fv, Fusarium virguliforme, growth inhibition vs 2% DMSO control at 48 hours): 0.4 µg/mL (≈ 0.6 µM)
IC90 ([4]; read-out: Concentration at 90% Inhibition Pc, Phytophthora capsici, growth inhibition at 48 hours vs 2% DMSO control): > 50 µg/mL
IC90 ([4]; read-out: Concentration at 90% Inhibition Pc, Phytophthora capsici, growth inhibition vs 2% DMSO control at 48 hours): > 50 µg/mL
IC90 (Septoria tritici (St); read-out: Concentration at 90% Inhibition St, Septoria tritici, growth inhibition at 48 hours vs 2% DMSO control): > 50 µg/mL
IC90 (Septoria tritici (St); read-out: Concentration at 90% Inhibition St, Septoria tritici, growth inhibition vs 2% DMSO control at 48 hours): > 50 µg/mL
IC50 (fungal (fACC2); Table 2a): 1 to 5 nM
IC50 (fungal (fACC2); Table 2b, additional results): 1 to 5 nM
